Source: the NIST ThermoML archive (doi:10.1021/acs.jced.9b00668)
± gives the expanded uncertainty stated by the source.

Tests used:
[1] = xn = mol fraction of the nth substance listed; settings: 298.15 K, 101.3 kPa, Liquid, Vibrating tube method
[2] = Liquid; for mass density: 298.15 K, 101.3 kPa, Vibrating tube method; for vapor or sublimation pressure: Ebulliometric method (Recirculating still)
[3] = refractive index (Na D-line) (dimensionless); settings: 298.15 K; 101.3 kPa; Liquid; Standard Abbe refractometry

CCOC(C)=O [ethyl acetate] + CC(C)CC(C)(C)C
Settings | mass density [kg/m3]
[1], x1 = 1 | 894.4 ± 0.2

CCCCCCC [heptane]
Settings | mass density [kg/m3] | refractive index
[2] | 679.7 ± 0.3 | –
[3] | – | 1.38527 ± 0.0004

Settings | vapor or sublimation pressure [kPa]
[2], 498.65 K | 1500 ± 15

CC(C)CC(C)(C)C [2,2,4-trimethylpentane] + COC(C)=O
Settings | mass density [kg/m3]
[1], x2 = 0 | 687.8 ± 0.3

COC(C)=O [methyl ethanoate] + CCCCCCC
[1]
Settings | mass density [kg/m3]
x1 = 0.0579 | 685.5 ± 0.3
x1 = 0.0789 | 687.8 ± 0.3
x1 = 0.0926 | 689.7 ± 0.3
x1 = 0.1276 | 694.1 ± 0.3
x1 = 0.1562 | 697.4 ± 0.3
x1 = 0.1662 | 698.8 ± 0.3
x1 = 0.1998 | 703.2 ± 0.3
x1 = 0.2413 | 709.3 ± 0.3
x1 = 0.2652 | 712.7 ± 0.3
x1 = 0.2914 | 716.8 ± 0.3
x1 = 0.3583 | 728.4 ± 0.3
x1 = 0.4171 | 739 ± 0.3
x1 = 0.43 | 741.6 ± 0.3
x1 = 0.4682 | 749.3 ± 0.3
x1 = 0.506 | 757.3 ± 0.3
x1 = 0.5357 | 764 ± 0.3
x1 = 0.584 | 775.6 ± 0.3
x1 = 0.6338 | 788.4 ± 0.3
x1 = 0.715 | 811.7 ± 0.2
x1 = 0.7194 | 813 ± 0.2
x1 = 0.7256 | 814.9 ± 0.2
x1 = 0.7698 | 829 ± 0.2
x1 = 0.7996 | 839.2 ± 0.2
x1 = 0.8104 | 843.3 ± 0.2
x1 = 0.8285 | 850.2 ± 0.2
x1 = 0.8537 | 859.8 ± 0.2
x1 = 0.8558 | 860.5 ± 0.2
x1 = 0.8898 | 874.1 ± 0.2
x1 = 0.901 | 879.1 ± 0.2
x1 = 0.9172 | 885.8 ± 0.2
x1 = 0.9284 | 890.8 ± 0.2
x1 = 0.9598 | 905.6 ± 0.2
x1 = 0.9631 | 907.4 ± 0.2
x1 = 0.9735 | 912.8 ± 0.2
x1 = 1 | 927.1 ± 0.2

CCCCCCC [heptane] + COC(C)=O
Settings | mass density [kg/m3]
[1], x2 = 0 | 679.7 ± 0.3

COC(C)=O [methyl ethanoate] + CC(C)CC(C)(C)C
[1]
Settings | mass density [kg/m3]
x1 = 0.0646 | 693.5 ± 0.3
x1 = 0.0822 | 695.3 ± 0.3
x1 = 0.0859 | 695.7 ± 0.3
x1 = 0.0992 | 697 ± 0.3
x1 = 0.1566 | 703.6 ± 0.3
x1 = 0.1941 | 707.9 ± 0.3
x1 = 0.208 | 709.7 ± 0.3
x1 = 0.224 | 711.7 ± 0.3
x1 = 0.2636 | 717.1 ± 0.3
x1 = 0.2688 | 717.7 ± 0.3
x1 = 0.2957 | 721.6 ± 0.3
x1 = 0.3211 | 725.4 ± 0.3
x1 = 0.3319 | 727 ± 0.3
x1 = 0.3956 | 737.4 ± 0.3
x1 = 0.5015 | 757.3 ± 0.2
x1 = 0.578 | 774 ± 0.2
x1 = 0.5792 | 774.3 ± 0.2
x1 = 0.6528 | 792.8 ± 0.2
x1 = 0.6958 | 804.5 ± 0.2
x1 = 0.7268 | 813.9 ± 0.2
x1 = 0.7611 | 824.8 ± 0.2
x1 = 0.7834 | 832.2 ± 0.2
x1 = 0.8161 | 843.6 ± 0.2
x1 = 0.8466 | 855.3 ± 0.2
x1 = 0.848 | 855.8 ± 0.2
x1 = 0.8628 | 861.6 ± 0.2
x1 = 0.8632 | 861.9 ± 0.2
x1 = 0.8889 | 872.5 ± 0.2
x1 = 0.9179 | 885.5 ± 0.2
x1 = 0.9388 | 895.1 ± 0.2
x1 = 0.9406 | 895.7 ± 0.2
x1 = 0.9456 | 898.3 ± 0.2
x1 = 0.9574 | 904.3 ± 0.2
x1 = 1 | 927.1 ± 0.2

CCOC(C)=O [ethyl acetate]
Settings | mass density [kg/m3] | refractive index
[2] | 894.4 ± 0.2 | –
[3] | – | 1.36981 ± 0.00035

[2]
Settings | vapor or sublimation pressure [kPa]
350.19 K | 100 ± 3
462.75 K | 1500 ± 3

COC(C)=O [methyl ethanoate]
Settings | mass density [kg/m3] | refractive index
[2] | 927.1 ± 0.2 | –
[3] | – | 1.35875 ± 0.00035

[2]
Settings | vapor or sublimation pressure [kPa]
329.99 K | 100 ± 3
436.08 K | 1500 ± 3

CC(C)CC(C)(C)C [2,2,4-trimethylpentane] + CCOC(C)=O
[1]
Settings | mass density [kg/m3]
x2 = 0 | 687.8 ± 0.3
x2 = 0.0627 | 694.4 ± 0.3
x2 = 0.1027 | 699 ± 0.3
x2 = 0.1524 | 704.9 ± 0.3
x2 = 0.2008 | 711.1 ± 0.3
x2 = 0.272 | 721 ± 0.3
x2 = 0.3528 | 733.3 ± 0.3
x2 = 0.386 | 738.7 ± 0.2
x2 = 0.4349 | 747.1 ± 0.2
x2 = 0.4568 | 751 ± 0.2
x2 = 0.5071 | 760.4 ± 0.2
x2 = 0.5362 | 766.1 ± 0.2
x2 = 0.6042 | 780.2 ± 0.2
x2 = 0.7014 | 802.6 ± 0.2
x2 = 0.7603 | 817.7 ± 0.2
x2 = 0.8488 | 842.7 ± 0.2
x2 = 0.8968 | 857.9 ± 0.2
x2 = 0.9273 | 868.1 ± 0.2
x2 = 0.9465 | 874.7 ± 0.2

CCOC(C)=O [ethyl acetate] + CCCCCCC
[1]
Settings | mass density [kg/m3]
x1 = 0.0642 | 687.5 ± 0.3
x1 = 0.071 | 688.3 ± 0.3
x1 = 0.125 | 695.2 ± 0.3
x1 = 0.1274 | 695.8 ± 0.3
x1 = 0.1932 | 705.1 ± 0.3
x1 = 0.2136 | 708.2 ± 0.3
x1 = 0.3294 | 726.7 ± 0.3
x1 = 0.3874 | 736.7 ± 0.3
x1 = 0.4593 | 750.2 ± 0.3
x1 = 0.5966 | 778.8 ± 0.2
x1 = 0.6582 | 793.2 ± 0.2
x1 = 0.6841 | 799.3 ± 0.2
x1 = 0.7001 | 803.7 ± 0.2
x1 = 0.7346 | 812.6 ± 0.2
x1 = 0.8029 | 830.8 ± 0.2
x1 = 0.8272 | 837.6 ± 0.2
x1 = 0.8471 | 843.6 ± 0.2
x1 = 0.9069 | 862.1 ± 0.2
x1 = 0.9631 | 880.7 ± 0.2
x1 = 1 | 894.4 ± 0.2

CCCCCCC [heptane] + CCOC(C)=O
Settings | mass density [kg/m3]
[1], x2 = 0 | 679.7 ± 0.3

CC(C)CC(C)(C)C [2,2,4-trimethylpentane]
Settings | mass density [kg/m3] | refractive index
[2] | 687.8 ± 0.3 | –
[3] | – | 1.38905 ± 0.00036

[2]
Settings | vapor or sublimation pressure [kPa]
371.91 K | 100 ± 3
504.65 K | 1500 ± 3
